Data set [1] can be described thus: Plasma stability, rat. Conditions: male, Sprague-Dawley.
Data set [2] can be described thus: Plasma stability, human. The conditions noted are these: both.
Data set [3] is described as follows: Plasma stability, mouse. Conditions: male, CD-1, mouse.
A short description of data set [4]: Liver microsome stability, rat. The conditions noted are these: male, Sprague-Dawley, liver microsomes, pH 7.4. A general note: Liver microsomes are a subcellular fraction often used to study metabolism.
Data set [5] in a line: Liver microsome stability, human. The conditions noted are these: both, liver microsomes, pH 7.4.
Data set [6] is described as follows: Liver microsome stability, mouse. The conditions noted are these: male, CD-1, mouse, liver microsomes, pH 7.4.
Data set [7] is described as follows: Mouse plasma PK, single dose PO or IP. Conditions: female, ICR (CD-1).

Molecules are shown by their SMILES. Bounds are passed on as bounds.

Broadly, the half-life is the time in which the quantity being followed falls by half. The low end stands for fast loss, the high end for slow loss. A word on the AUC(0-inf): it is total exposure, with the tail of the curve extrapolated. Consider `O=c1ccn([C@@H]2O[C@](F)(CO)[C@@H](O)[C@H]2O)c(=O)[nH]1` [EIDD-02749, 1-[(2R,3R,4S,5S)-5-fluoro-3,4-dihydroxy-5-(hydroxymethyl)tetrahydrofuran-2-yl]pyrimidine-2,4-dione], for which the half-life at 1 μM in data set [1] was found to be 22 min; in data set [2], 26 min; in data set [3] it was 37 min; in data set [4], 25 min; in data set [5] it was 22 min; in data set [6], 27 min. Moreover, the total exposure AUC(0-inf) in data set [7] (ip, 10 mg/kg) turned out to be 19.6 µM·h; in data set [7] (po, 50 mg/kg) it was 232 µM·h; in data set [7] (po, 150 mg/kg) it was 392 µM·h; in data set [7] (po, 500 mg/kg), 755 µM·h. For the same compound, the half-life in data set [7] (ip, 10 mg/kg) was 378 min; in data set [7] (po, 50 mg/kg), 498 min; in data set [7] (po, 150 mg/kg), 510 min; in data set [7] (po, 500 mg/kg), 774 min. Also, the bioavailability came to 236% in data set [7] (po, 50 mg/kg); 133% in data set [7] (po, 150 mg/kg); 77% in data set [7] (po, 500 mg/kg).

For the compound `CC(C)C(=O)OC[C@@]1(F)OC(n2ccc(=O)[nH]c2=O)C(O)[C@@H]1O` (stereo partly drawn) [EIDD-2947, [(2S,3S)-5-(2,4-dioxopyrimidin-1-yl)-2-fluoro-3,4-dihydroxy-tetrahydrofuran-2-yl]methyl 2-methylpropanoate], the half-life at 1 μM in data set [1] stood at 9 min; in data set [2], 2 min; in data set [3], 1 min; in data set [4], 10 min; in data set [6], 1 min.

`CC(C)C(=O)OC[C@@]1(F)O[C@@H](n2ccc(=O)[nH]c2=O)[C@H](OC(=O)C(C)C)[C@@H]1OC(=O)C(C)C` [EIDD-2954, [(2S,3S,4R,5R)-5-(2,4-dioxopyrimidin-1-yl)-2-fluoro-3,4-bis(2-methylpropanoyloxy)tetrahydrofuran-2-yl]methyl 2-methylpropanoate]: the half-life at 1 μM in data set [1] is 1 min; in data set [2] it was 2 min; in data set [3], 1 min; in data set [4], under 1 min; in data set [5], under 1 min; in data set [6], under 1 min.

For the compound `CC(C)[C@H](N)C(=O)OC[C@@]1(F)O[C@@H](n2ccc(=O)[nH]c2=O)[C@H](O)[C@@H]1O.Cl` [EIDD-2971, [(1S)-1-[[(2S,3S,4R,5R)-5-(2,4-dioxopyrimidin-1-yl)-2-fluoro-3,4-dihydroxy-tetrahydrofuran-2-yl]methoxycarbonyl]-2-methyl-propyl]ammonium chloride], the half-life at 1 μM came out at 50 min in data set [1]; 81 min in data set [2]; 59 min in data set [3]; 33 min in data set [4]; 38 min in data set [5]; 11 min in data set [6].

The record behind these values is US20240180948A1, “4'-HALOGEN CONTAINING NUCLEOTIDE AND NUCLEOSIDE THERAPEUTIC COMPOSITIONS AND USES RELATED THERETO” (priority 2018, published 2024).
